Experiments:
[1] = target: T1, estrogen receptor (Rattus norvegicus, UniProt P06211); assay: Estrogen receptor (ER) assay: inhibition of [3H]E2 binding, uterine cytosol
T1 construct: from tissue; host or cells: uterine cytosol of gonadectomized female Sprague-Dawley rats
T1 sequence (P06211 1-600): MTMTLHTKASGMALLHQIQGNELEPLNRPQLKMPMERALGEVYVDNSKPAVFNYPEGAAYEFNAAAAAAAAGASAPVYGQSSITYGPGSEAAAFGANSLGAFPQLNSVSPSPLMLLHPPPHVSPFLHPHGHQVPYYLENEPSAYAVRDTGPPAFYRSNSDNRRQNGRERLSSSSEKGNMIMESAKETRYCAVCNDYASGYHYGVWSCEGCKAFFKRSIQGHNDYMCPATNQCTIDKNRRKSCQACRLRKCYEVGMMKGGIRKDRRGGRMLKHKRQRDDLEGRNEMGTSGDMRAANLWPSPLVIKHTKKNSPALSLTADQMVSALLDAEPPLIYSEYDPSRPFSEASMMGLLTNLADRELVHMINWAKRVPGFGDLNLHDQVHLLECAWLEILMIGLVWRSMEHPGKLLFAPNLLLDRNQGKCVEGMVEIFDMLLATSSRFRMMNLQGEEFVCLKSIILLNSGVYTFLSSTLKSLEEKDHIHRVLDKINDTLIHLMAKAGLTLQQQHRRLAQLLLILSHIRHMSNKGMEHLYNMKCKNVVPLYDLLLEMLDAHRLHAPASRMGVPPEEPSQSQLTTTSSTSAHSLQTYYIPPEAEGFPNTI

[2] = tested on: Shionogi mouse mammary carcinoma cells; assay: Antiandrogenic activity: inhibition of DHT-induced proliferation of Shionogi cells; assay type: cell-based
Outline: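 Androgen-sensitive Shionogi mouse mammary carcinoma cells, 20 000/well, were grown 10–12 days in charcoal-stripped serum with increasing agent concentrations in triplicate, with medium changed every 3–4 days. Cell number was counted directly, and ED50 was derived by least-square regression.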

[3] = Table 4′, DHT-induced proliferation, E^−6 (10^−6 M)
[4] = Table 4′, DHT-induced proliferation

Structure (SMILES) | % Inhibition Estrogen Receptor E^−6 ([1]; Table 4′) [%] | % Inhibition Estrogen Receptor E^−8 ([1]; Table 4′) [%] | Antiandrogenic Activity Shionogi, DHT E^−6 [2, 3] [%] | Antiandrogenic Activity Shionogi, DHT E^−7 [2, 4] [%] | % Inhibition Estrogen Receptor E^−6 [1] [%] | % Inhibition Estrogen Receptor E^−8 [1] [%] | Antiandrogenic Activity Shionogi, DHT E^−6 ([2]; with DHT, E^−6) | Antiandrogenic Activity Shionogi, DHT E^−7 ([2]; with DHT)
CC1(C)CCC2(CCC3C4CCc5cc(OCCN6CCCCC6)ccc5C4CCC32C)OC1=O [EM-1390-CS, 3-(N-piperidyl-ethyl)-1,3,5(10)-estratrien-17(R)-spiro-2′-(5′,5′-dimethyl-6′-oxo)-tetrahydropyran] | 0 | 0 | −119 | −36 |  |  |  | 
COCCOc1cc2c(cc1C(F)(F)F)[C@H]1CC[C@@]3(C)[C@@H](CC[C@@]34CCC(C)(C)C(=O)O4)[C@@H]1CC2 [EM-1438, 3-(2′-Methoxyethoxy)-2-trifluoromethyl-1,3,5(10)-estratrien-17(R)-spiro-2′-(5′,5′-dimethyl-6′-oxo)tetrahydropyran] | 0 | 4 | −53 | 0 |  |  |  | 
COCCOc1ccc2c(c1)C(=O)CC1C2CCC2(C)C1CCC21CCC(C)(C)C(=O)O1 (centres unmarked) [EM-1408-CS] | 6 | 0 | −94 | −19 |  |  |  | 
CCOc1ccc2c(c1)CCC1C2CC[C@@]2(C)C1CC[C@@]21CCC(C)(C)C(=O)O1 (stereo partly drawn) [EM-1369, 3-Ethoxy-1,3,5(10)-estratrien-17(R)-spiro-2′-(5′,5′-dimethyl-6′-oxo)-tetrahydropyran] | 0 | 2 | −24 | 0 |  |  |  | 
CC1(C)CCC2(CCC3C4CCc5c(cc(Cl)c(O)c5Cl)C4CCC32C)OC1=O (centres unmarked) [EM-1391-CS] | 0 | 0 | −19 | 0 |  |  |  | 
COCCOc1cc2c(cc1C#N)C1CC[C@@]3(C)C(CC[C@@]34CCC(C)(C)C(=O)O4)C1CC2 (some centres unmarked) [EM-1396] | 2 | 3 | −29 | −16 |  |  |  | 
CSCCOc1ccc2c(c1)CCC1C2CCC2(C)C1CCC21CCCC(=O)O1 [CS-242, 3-Methylthioethyloxy-1,3,5(10)-estratrien-17(R)-spiro-2′-(6′-oxo) Tetrahydropyran] | 0 | 0 | −66 | 9 |  |  |  | 
CCC[C@]1(F)CC2C3C=CC4=CC(=O)CC[C@]4(C)C3CC[C@]2(C)C1=O (some centres unmarked) [EM-1183] |  |  |  |  | 0 | 0 | −51 | 0
CC1CCC2(CCC3C4CCc5cc(O)c([N+](=O)[O-])cc5C4CCC32C)OC1=O [EM-1131, 2-Nitro-1,3,5(10)-estratrien-3-ol-17(R)-spiro-2′-(5′-methyl-6′-oxo)tetrahydropyran] | 3 | 5 | −47 | −15 |  |  |  | 
COc1ccc2c(c1)C(=O)CC1C3CCC4(CCC(C)(C)C(=O)O4)C3(C)CCC21O (centres unmarked) [EM-1386] | 0 | 3 | −27 | 0 |  |  |  | 
CC1(C)CCC2(CCC3C4CCc5ccccc5C4CCC32C)OC1=O (centres unmarked) [CS-224] | 2 | 0 | −11 | 23 |  |  |  | 

Source: patent US6541463B1, “Inhibitors of type 5 and type 3 17β-hydroxysteroid dehydrogenase and methods for their use” (Endorecherche, Inc., priority 1998, dated 2003)
